Source: ChEMBL document CHEMBL5584241, “Discovery of new anti-diabetic potential agents based on paracetamol incorporating sulfa-drugs: Design, synthesis, α-amylase, and α-glucosidase inhibitors with molecular docking simulation” (Eur J Med Chem, 2024)

Assays:
[1] = species on record: Homo sapiens; assay: Inhibition of alpha-glucosidase (unknown origin) at 100 ug/ml using p-nitrophenyl-alpha-D-glucopyranoside as substrate incubated for 15 to 25 mins by spectrophotometric analysis relative to control; conditions: dose 100.0 µg/ml, time 15-25 min
[2] = Inhibition of alpha-glucosidase (unknown origin) using p-nitrophenyl-alpha-D-glucopyranoside as substrate incubated for 15 to 25 mins by spectrophotometric analysis; design: species or system Homo sapiens
[3] = target: T1, Alpha amylase (Homo sapiens, UniProt P0DUB6); assay: Inhibition of alpha-amylase (unknown origin); format: protein assay
T1 sequence (P0DUB6 whole entry): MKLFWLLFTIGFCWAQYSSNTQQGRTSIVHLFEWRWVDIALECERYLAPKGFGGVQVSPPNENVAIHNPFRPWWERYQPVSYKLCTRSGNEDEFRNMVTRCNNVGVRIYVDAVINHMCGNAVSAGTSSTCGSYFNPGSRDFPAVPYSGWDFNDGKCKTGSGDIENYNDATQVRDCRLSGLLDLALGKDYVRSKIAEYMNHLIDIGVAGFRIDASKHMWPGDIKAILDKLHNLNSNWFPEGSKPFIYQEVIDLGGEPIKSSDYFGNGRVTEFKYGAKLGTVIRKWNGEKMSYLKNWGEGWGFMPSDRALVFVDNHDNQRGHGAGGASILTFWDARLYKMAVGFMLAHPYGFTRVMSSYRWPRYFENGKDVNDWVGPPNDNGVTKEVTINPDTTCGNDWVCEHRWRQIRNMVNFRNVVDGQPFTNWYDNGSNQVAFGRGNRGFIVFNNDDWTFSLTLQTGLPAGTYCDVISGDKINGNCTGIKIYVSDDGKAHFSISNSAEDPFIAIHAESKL

[4] = target: Maltase-glucoamylase (Homo sapiens, UniProt O43451); assay: Inhibition of intestinal alpha-glucosidase (unknown origin) using p-nitrophenyl-alpha-D-glucopyranoside as substrate preincubated for 5 mins followed by substrate addition and measured after 5 mins by spectrophotometric analysis
Chain of Maltase-glucoamylase (O43451 whole entry): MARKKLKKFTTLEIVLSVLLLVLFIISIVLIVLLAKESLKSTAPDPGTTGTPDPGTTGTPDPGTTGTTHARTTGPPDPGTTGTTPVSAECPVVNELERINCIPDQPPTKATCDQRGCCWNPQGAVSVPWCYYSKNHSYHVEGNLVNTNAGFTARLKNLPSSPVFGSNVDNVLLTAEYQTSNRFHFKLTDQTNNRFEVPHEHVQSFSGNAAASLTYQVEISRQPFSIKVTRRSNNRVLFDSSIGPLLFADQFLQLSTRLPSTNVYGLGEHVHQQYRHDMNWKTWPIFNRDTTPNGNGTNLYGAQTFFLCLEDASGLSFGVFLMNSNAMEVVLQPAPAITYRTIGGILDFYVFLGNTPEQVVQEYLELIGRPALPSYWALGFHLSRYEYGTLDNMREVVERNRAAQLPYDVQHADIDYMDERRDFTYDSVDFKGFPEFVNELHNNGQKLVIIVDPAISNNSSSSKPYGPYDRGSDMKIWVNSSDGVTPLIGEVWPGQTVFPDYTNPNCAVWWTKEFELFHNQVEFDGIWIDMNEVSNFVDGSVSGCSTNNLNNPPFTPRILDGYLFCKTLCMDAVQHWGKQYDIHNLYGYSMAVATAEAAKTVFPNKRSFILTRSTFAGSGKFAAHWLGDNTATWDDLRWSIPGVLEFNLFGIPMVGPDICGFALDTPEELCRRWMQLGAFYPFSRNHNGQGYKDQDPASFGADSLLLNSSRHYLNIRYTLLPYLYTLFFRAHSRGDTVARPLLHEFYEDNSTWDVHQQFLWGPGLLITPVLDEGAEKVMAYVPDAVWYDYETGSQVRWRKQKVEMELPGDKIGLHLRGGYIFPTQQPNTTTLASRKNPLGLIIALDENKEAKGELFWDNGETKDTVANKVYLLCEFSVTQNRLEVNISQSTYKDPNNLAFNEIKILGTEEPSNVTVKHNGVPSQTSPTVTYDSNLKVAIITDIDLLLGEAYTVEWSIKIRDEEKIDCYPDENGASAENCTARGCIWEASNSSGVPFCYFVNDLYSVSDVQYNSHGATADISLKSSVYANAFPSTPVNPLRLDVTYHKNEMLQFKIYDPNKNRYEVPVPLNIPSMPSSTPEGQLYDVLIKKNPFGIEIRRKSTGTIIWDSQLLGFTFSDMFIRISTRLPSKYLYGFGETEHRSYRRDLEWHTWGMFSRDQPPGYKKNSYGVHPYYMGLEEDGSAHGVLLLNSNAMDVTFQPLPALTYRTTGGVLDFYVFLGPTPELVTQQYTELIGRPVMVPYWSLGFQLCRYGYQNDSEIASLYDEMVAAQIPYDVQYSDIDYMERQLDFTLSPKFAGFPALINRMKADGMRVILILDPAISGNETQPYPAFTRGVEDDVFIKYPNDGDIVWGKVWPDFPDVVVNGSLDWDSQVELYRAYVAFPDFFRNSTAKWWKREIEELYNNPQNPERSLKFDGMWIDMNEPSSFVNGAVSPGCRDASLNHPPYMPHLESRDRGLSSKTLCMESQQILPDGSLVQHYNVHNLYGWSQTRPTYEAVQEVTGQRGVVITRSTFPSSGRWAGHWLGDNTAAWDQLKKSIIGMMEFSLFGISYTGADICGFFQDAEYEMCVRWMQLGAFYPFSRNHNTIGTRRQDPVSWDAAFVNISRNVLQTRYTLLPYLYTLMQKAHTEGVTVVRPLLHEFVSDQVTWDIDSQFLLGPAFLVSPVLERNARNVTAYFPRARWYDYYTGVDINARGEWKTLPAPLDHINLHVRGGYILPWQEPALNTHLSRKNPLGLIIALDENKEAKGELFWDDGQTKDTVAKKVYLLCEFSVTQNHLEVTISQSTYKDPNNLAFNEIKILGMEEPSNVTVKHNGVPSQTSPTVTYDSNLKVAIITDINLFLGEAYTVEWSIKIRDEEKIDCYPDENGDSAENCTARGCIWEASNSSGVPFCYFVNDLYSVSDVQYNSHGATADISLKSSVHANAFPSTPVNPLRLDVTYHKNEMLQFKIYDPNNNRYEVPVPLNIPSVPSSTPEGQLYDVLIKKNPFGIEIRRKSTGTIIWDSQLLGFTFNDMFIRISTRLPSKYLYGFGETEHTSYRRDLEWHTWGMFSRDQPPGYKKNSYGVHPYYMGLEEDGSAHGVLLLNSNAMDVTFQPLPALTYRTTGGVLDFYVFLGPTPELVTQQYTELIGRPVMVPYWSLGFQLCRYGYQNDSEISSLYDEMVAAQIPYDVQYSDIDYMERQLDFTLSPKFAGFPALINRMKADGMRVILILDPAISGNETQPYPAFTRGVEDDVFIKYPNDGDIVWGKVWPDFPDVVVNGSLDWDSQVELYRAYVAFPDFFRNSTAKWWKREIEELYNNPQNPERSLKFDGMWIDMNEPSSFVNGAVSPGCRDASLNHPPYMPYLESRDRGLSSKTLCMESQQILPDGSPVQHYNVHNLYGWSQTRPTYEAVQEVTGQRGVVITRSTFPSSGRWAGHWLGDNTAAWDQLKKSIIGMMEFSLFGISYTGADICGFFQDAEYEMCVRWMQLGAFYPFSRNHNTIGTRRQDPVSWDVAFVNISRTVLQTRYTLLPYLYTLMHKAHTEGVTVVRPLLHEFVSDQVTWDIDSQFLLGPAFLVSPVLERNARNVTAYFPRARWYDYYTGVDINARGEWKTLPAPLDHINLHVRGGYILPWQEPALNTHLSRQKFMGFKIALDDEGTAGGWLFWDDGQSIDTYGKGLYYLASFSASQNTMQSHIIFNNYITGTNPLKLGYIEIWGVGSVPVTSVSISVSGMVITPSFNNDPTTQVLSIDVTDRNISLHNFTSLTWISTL

[5] = Inhibition of alpha-glucosidase (unknown origin); design: species or system Homo sapiens

| SMILES | inhibition [1] [%] | IC50 [2] [µM] | IC50 [3] [µM] | IC50 [4] [µM] | IC50 [5] [µM] |
| --- | --- | --- | --- | --- | --- |
| C[C@H]1O[C@H](O[C@H]2[C@H](O)[C@@H](O)[C@@H](O[C@H]3[C@H](O)[C@@H](O)C(O)O[C@@H]3CO)O[C@@H]2CO)[C@H](O)[C@@H](O)[C@@H]1N[C@H]1C=C(CO)[C@@H](O)[C@H](O)[C@H]1O (stereo partly specified) [ACARBOSE] | 95.8 | 1.24 |  |  |  |
| CC(=O)Nc1ccc(O)c(/N=N/c2ccc(S(=O)(=O)Nc3ccc(Cl)nn3)cc2)c1 | 94.2 | 19.1 |  |  |  |
| COc1ccccc1S(=O)(=O)Nc1nnc(-c2ccc([N+](=O)[O-])cc2)s1 |  |  | 2.4 |  |  |
| O=S(=O)(NCCc1c[nH]c2ccccc12)c1cc(F)ccc1Cl |  |  |  | 1.6 |  |
| O=[N+]([O-])c1ccc(-c2nnc(NS(=O)(=O)c3ccc(Cl)c(Cl)c3)s2)cc1 |  |  |  |  | 5.5 |
| CC(=O)Nc1ccc(O)c(/N=N/c2ccc(S(=O)(=O)NC(=N)N)cc2)c1 | 91 | 96.5 |  |  |  |
| CC(=O)Nc1ccc(O)c(/N=N/c2ccc(S(N)(=O)=O)cc2)c1 | 93.6 | 11 |  |  |  |
| CC(=O)Nc1ccc(O)c(/N=N/c2ccc(S(=O)(=O)Nc3nccs3)cc2)c1 | 93.4 | 44.1 |  |  |  |
| CC(=O)Nc1ccc(O)c(/N=N/c2ccc(S(=O)(=O)Nc3cc(C)on3)cc2)c1 | 92.6 | 18.3 |  |  |  |
| CC(=O)Nc1ccc(O)c(/N=N/c2ccc(S(=O)(=O)Nc3ncccn3)cc2)c1 | 95.7 | 1.39 |  |  |  |
| CC(=O)Nc1ccc(O)c(/N=N/c2ccc(S(=O)(=O)Nc3noc(C)c3C)cc2)c1 | 95.6 | 2.95 |  |  |  |
| CC(=O)Nc1ccc(O)c(/N=N/c2ccc(S(=O)(=O)Nc3nc(C)cc(C)n3)cc2)c1 | 94.1 | 5.13 |  |  |  |
